We go through 26 molecules from patent publication US10039753B2, “Imidazo[4,5-c]quinoline and imidazo[4,5-c][1,5]naphthyridine derivatives as LRRK2 inhibitors” (Pfizer Inc., priority 2015, dated 2018).

For assay [1], the target named is T1, GST-tagged truncated LRRK2 (Homo sapiens, UniProt Q5S007).
T1 construct: GST-tagged truncated LRRK2 from Invitrogen (Cat # PV4874); GST; purchased Invitrogen PV4874
The assay can be described thus: LRRK2 Assay, Format 2 (Lantha Screen), WT. The conditions noted are these: geometric mean of 2-4 determinations unless otherwise indicated (a: >=5; b: single determination). In kind it is biochemical.

The target of another assay is mutant G2019S LRRK2 (Homo sapiens, UniProt Q5S007, G2019S). The assay can be described thus: LRRK2 Assay, Format 2 (Lantha Screen), G2019S mutant. In kind it is biochemical. More on the design: purchased Invitrogen PV4881. The conditions noted are these: geometric mean of 2-4 determinations unless otherwise indicated (a: >=5; b: single determination); read-out: LRRK2, Format 2 G2019S IC50.

Counter-ions that a name gives are not always drawn.

T1 sequence (Q5S007 970-2527 limits assumed): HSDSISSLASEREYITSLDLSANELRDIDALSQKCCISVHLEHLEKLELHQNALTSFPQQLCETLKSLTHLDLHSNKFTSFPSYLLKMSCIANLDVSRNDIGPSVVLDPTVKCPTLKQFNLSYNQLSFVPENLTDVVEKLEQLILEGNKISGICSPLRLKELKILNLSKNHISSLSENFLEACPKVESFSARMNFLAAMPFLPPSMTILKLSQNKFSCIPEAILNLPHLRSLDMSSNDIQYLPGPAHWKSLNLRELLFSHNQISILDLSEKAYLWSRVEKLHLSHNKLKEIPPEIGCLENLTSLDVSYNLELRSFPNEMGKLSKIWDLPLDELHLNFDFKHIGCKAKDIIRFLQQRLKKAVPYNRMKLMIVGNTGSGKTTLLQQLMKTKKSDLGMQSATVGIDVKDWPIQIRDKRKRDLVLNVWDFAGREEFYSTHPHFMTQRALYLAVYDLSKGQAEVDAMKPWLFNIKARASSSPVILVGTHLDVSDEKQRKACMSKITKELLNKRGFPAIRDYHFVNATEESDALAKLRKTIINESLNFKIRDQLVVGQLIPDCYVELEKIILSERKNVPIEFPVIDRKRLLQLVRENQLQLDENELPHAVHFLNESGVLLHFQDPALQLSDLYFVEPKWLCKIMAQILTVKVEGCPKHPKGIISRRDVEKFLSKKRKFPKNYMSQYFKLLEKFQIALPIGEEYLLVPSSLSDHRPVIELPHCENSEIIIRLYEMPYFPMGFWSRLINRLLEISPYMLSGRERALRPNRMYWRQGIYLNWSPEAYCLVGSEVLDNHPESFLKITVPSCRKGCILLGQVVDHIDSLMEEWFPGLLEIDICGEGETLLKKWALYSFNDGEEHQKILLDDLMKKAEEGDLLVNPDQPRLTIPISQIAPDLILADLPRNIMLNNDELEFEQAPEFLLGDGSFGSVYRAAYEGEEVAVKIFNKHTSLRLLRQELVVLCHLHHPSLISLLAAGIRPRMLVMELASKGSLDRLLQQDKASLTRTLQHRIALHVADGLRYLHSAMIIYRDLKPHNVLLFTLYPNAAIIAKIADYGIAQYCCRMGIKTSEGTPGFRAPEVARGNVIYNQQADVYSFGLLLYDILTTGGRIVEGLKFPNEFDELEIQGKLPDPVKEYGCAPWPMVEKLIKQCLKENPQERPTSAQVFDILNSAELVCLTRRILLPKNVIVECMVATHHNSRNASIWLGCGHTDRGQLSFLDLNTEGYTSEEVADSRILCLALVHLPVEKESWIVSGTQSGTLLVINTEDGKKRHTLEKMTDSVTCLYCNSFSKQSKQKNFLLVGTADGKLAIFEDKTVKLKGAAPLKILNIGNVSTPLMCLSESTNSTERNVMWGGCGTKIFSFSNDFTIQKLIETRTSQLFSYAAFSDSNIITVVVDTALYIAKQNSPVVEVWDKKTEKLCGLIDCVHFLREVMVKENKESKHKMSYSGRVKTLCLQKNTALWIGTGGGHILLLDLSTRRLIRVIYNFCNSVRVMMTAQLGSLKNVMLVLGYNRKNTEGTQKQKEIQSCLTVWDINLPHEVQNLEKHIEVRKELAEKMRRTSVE
mutant G2019S LRRK2, sequence (Q5S007 970-2527 G2019S limits assumed): as the sequence (Q5S007 970-2527 limits assumed) above, with G1050S counted along it

On to `C[C@@H]1C[C@H](n2c(Cc3nc4ccccc4o3)nc3cnc4ccc(C#N)cc4c32)CCO1` [Example 153, 2-(1,3-benzoxazol-2-ylmethyl)-1-[(2R,4R)-2-methyltetrahydro-2H-pyran-4-yl]-1H-imidazo[4,5-c]quinoline-8-carbonitrile, formate salt], for which the IC50 was found to be 6.04 nM in assay [1] and 5.34 nM at mutant G2019S LRRK2.

In the case of `Cc1cc(Cc2nc3cnc4ccc(C#N)cc4c3n2C2CCCC2(F)F)no1` (single isomer, unassigned; ent-2) [Example 144, 1-(2,2-difluorocyclopentyl)-2-[(5-methyl-1,2-oxazol-3-yl)methyl]-1H-imidazo[4,5-c]quinoline-8-carbonitrile, ENT-2], the IC50 in assay [1] came out at 19.3 nM; on mutant G2019S LRRK2, 29.3 nM.

Take `N#Cc1ccc2ncc3nc(Cc4cc(C(F)(F)F)on4)n([C@@H]4CC[C@H](F)C4)c3c2c1` (single isomer, unassigned; ent-1) [Example 211, 1-(cis-3-fluorocyclopentyl)-2-{[5-(trifluoromethyl)-1,2-oxazol-3-yl]methyl}-1H-imidazo[4,5-c]quinoline-8-carbonitrile, ENT-1]: the IC50 in assay [1] was 12.8 nM; at mutant G2019S LRRK2, 18.7 nM.

`C[C@@H]1C[C@H](n2c(Cc3noc4ccccc34)nc3cnc4ccc(C#N)cc4c32)CCO1` [Example 154, 2-(1,2-benzoxazol-3-ylmethyl)-1-[(2R,4R)-2-methyltetrahydro-2H-pyran-4-yl]-1H-imidazo[4,5-c]quinoline-8-carbonitrile, formate salt]: the IC50 in assay [1] turned out to be 4.01 nM; on mutant G2019S LRRK2, 3.71 nM.

On to `Cc1ccn(Cc2nc3cnc4ccc(C#N)cc4c3n2[C@@H]2CCO[C@H](C)C2)n1` [Example 233, 2-[(3-methyl-1H-pyrazol-1-yl)methyl]-1-[(2R,4R)-2-methyltetrahydro-2H-pyran-4-yl]-1H-imidazo[4,5-c]quinoline-8-carbonitrile, formate salt], for which the IC50 was 14.3 nM in assay [1] and 11.9 nM on mutant G2019S LRRK2.

For `COc1ccc(Cc2nc3cnc4ccc(C#N)cc4c3n2C2CCOC(C)(C)C2)nc1` (single isomer, unassigned; ent-2) [Example 207, 1-(2,2-dimethyltetrahydro-2H-pyran-4-yl)-2-[(5-methoxypyridin-2-yl)methyl]-1H-imidazo[4,5-c]quinoline-8-carbonitrile, ENT-2], the IC50 in assay [1] is 7.53 nM; at mutant G2019S LRRK2, 6.84 nM.

For the molecule `Cc1nn2cc(Cc3nc4cnc5ccc(C#N)cc5c4n3[C@@H]3CC[C@H](F)C3)nc2s1` (single isomer, unassigned; ent-1) [Example 168, 1-(cis-3-fluorocyclopentyl)-2-[(2-methylimidazo[2,1-b][1,3,4]thiadiazol-6-yl)methyl]-1H-imidazo[4,5-c]quinoline-8-carbonitrile, ENT-1], the figures for the IC50 (in assay [1]; on mutant G2019S LRRK2) were 7.33 nM and 11.5 nM, respectively.

In the case of `C[C@@H]1C[C@H](n2c(Cc3cnco3)nc3cnc4ccc(Cl)cc4c32)CCO1` [Example 127, 8-chloro-1-[(2R,4R)-2-methyltetrahydro-2H-pyran-4-yl]-2-(1,3-oxazol-5-ylmethyl)-1H-imidazo[4,5-c]quinoline, formate salt], the concentration for half-maximal inhibition (IC50) was determined as 7.02 nM in assay [1] and 8.01 nM on mutant G2019S LRRK2.

For the molecule `N#Cc1ccc2ncc3nc(Cn4cc(C(F)(F)F)cn4)n([C@@H]4CC[C@H](F)C4)c3c2c1` (single isomer, unassigned; ent-1) [Example 201, 1-(cis-3-fluorocyclopentyl)-2-{[4-(trifluoromethyl)-1H-pyrazol-1-yl]methyl}-1H-imidazo[4,5-c]quinoline-8-carbonitrile, ENT-1], the figures for the IC50 (in assay [1]; at mutant G2019S LRRK2) were 7.47 nM and 11.3 nM, respectively.

Take `CC(F)(F)Cn1c(Cn2cc(C(F)(F)F)cn2)nc2cnc3ccc(C#N)cc3c21` [Example 227, 1-(2,2-difluoropropyl)-2-{[4-(trifluoromethyl)-1H-pyrazol-1-yl]methyl}-1H-imidazo[4,5-c]quinoline-8-carbonitrile]: the IC50 came out at 9.06 nM in assay [1] and 10.8 nM on mutant G2019S LRRK2.

For `Cc1cc(Cc2nc3cnc4ccc(C#N)cc4c3n2C2CCOC(C)(C)C2)no1` (stereo not shown) [Example 239, 1-(2,2-dimethyltetrahydro-2H-pyran-4-yl)-2-[(5-methyl-1,2-oxazol-3-yl)methyl]-1H-imidazo[4,5-c]quinoline-8-carbonitrile, formate salt], the IC50 in assay [1] worked out at 9.74 nM; at mutant G2019S LRRK2 it was 10.8 nM.

Consider `C[C@@H]1C[C@H](n2c(Cc3cc(CF)on3)nc3cnc4ccc(C#N)cc4c32)CCO1` [Example 189, 2-{[5-(fluoromethyl)-1,2-oxazol-3-yl]methyl}-1-[(2R,4R)-2-methyltetrahydro-2H-pyran-4-yl]-1H-imidazo[4,5-c]quinoline-8-carbonitrile, trifluoroacetate salt], for which the IC50 in assay [1] was found to be 5.04 nM; on mutant G2019S LRRK2 it was 3.54 nM.

On to `Cc1cn(Cc2nc3cnc4ccc(Cl)cc4c3n2[C@H]2CC[C@@H](F)C2)nn1` (single isomer, unassigned) [Example 93, 8-Chloro-1-(cis-3-fluorocyclopentyl)-2-[(4-methyl-1H-1,2,3-triazol-1-yl)methyl]-1H-imidazo[4,5-c]quinoline], for which the half-inhibitory concentration (IC50) in assay [1] was determined as 5.62 nM; on mutant G2019S LRRK2 it was 8.18 nM.

With `Cc1cc(Cc2nc3cnc4ccc(C#N)cc4c3n2[C@@H]2CCC[C@@H]2F)no1` (single isomer, unassigned; ent-1) [Example 146, 1-(cis-2-fluorocyclopentyl)-2-[(5-methyl-1,2-oxazol-3-yl)methyl]-1H-imidazo[4,5-c]quinoline-8-carbonitrile, ENT-1], the half-inhibitory concentration (IC50) in assay [1] stood at 17.8 nM; at mutant G2019S LRRK2, 29.9 nM.

Turning to `Cc1cc(Cc2nc3cnc4ccc(C#N)cc4c3n2C2CCCC2)no1` [Example 152, 1-cyclopentyl-2-[(5-methyl-1,2-oxazol-3-yl)methyl]-1H-imidazo[4,5-c]quinoline-8-carbonitrile, formate salt], the IC50 was 25.1 nM in assay [1] and 40.8 nM at mutant G2019S LRRK2.

On to `C[C@@H]1C[C@H](n2c(Cc3cc4n(n3)CCC4)nc3cnc4ccc(Cl)cc4c32)CCO1` [Example 166, 8-chloro-2-(5,6-dihydro-4H-pyrrolo[1,2-b]pyrazol-2-ylmethyl)-1-[(2R,4R)-2-methyltetrahydro-2H-pyran-4-yl]-1H-imidazo[4,5-c]quinoline, trifluoroacetate salt], for which the IC50 in assay [1] is 7.35 nM; at mutant G2019S LRRK2, 7.38 nM.

Regarding `C[C@@H]1C[C@H](n2c(Cc3coc(C4CC4)n3)nc3cnc4ccc(C#N)cc4c32)CCO1` [Example 122, 2-[(2-cyclopropyl-1,3-oxazol-4-yl)methyl]-1-[(2R,4R)-2-methyltetrahydro-2H-pyran-4-yl]-1H-imidazo[4,5-c]quinoline-8-carbonitrile, formate salt], the IC50 is 4.3 nM in assay [1] and 3.7 nM at mutant G2019S LRRK2.

On to `Cc1cnc(Cc2nc3cnc4ccc(C#N)cc4c3n2C2CCC(F)C2)cn1` (single isomer, unassigned; ent-2) [Example C89, 1-(cis-3-fluorocyclopentyl)-2-[(5-methylpyrazin-2-yl)methyl]-1H-imidazo[4,5-c]quinoline-8-carbonitrile, ENT-2], for which the 50% inhibitory concentration (IC50) in assay [1] was found to be 18.8 nM; on mutant G2019S LRRK2, 20.5 nM.

Regarding `C[C@@H]1C[C@H](n2c(Cc3ccccn3)nc3cnc4ccc(C#N)cc4c32)CCO1` [Example 223, 1-[(2R,4R)-2-methyltetrahydro-2H-pyran-4-yl]-2-(pyridin-2-ylmethyl)-1H-imidazo[4,5-c]quinoline-8-carbonitrile], the concentration for half-maximal inhibition (IC50) in assay [1] was determined as 9.69 nM; at mutant G2019S LRRK2, 9.45 nM.

On to `C[C@@H]1C[C@H](n2c(Cc3cc(CF)on3)nc3cnc4ccc(Cl)cc4c32)CCO1` [Example 139, 8-chloro-2-{[5-(fluoromethyl)-1,2-oxazol-3-yl]methyl}-1-[(2R,4R)-2-methyltetrahydro-2H-pyran-4-yl]-1H-imidazo[4,5-c]quinoline], for which the IC50 worked out at 2.76 nM in assay [1] and 2.79 nM on mutant G2019S LRRK2.

As for `CCc1cnn(Cc2nc3cnc4ccc(C#N)cc4c3n2CC(C)(F)F)c1` [Example 209, 1-(2,2-difluoropropyl)-2-[(4-ethyl-1H-pyrazol-1-yl)methyl]-1H-imidazo[4,5-c]quinoline-8-carbonitrile], the values for the concentration for half-maximal inhibition (IC50) (in assay [1]; on mutant G2019S LRRK2) were 8.02 nM and 9.93 nM, respectively.

Consider `C[C@@H]1C[C@H](n2c(C(F)c3ccon3)nc3cnc4ccc(Cl)cc4c32)CCO1` (single isomer, unassigned) [Example 238], for which the figures for the IC50 (in assay [1]; at mutant G2019S LRRK2) were 3.88 nM and 3.82 nM, respectively.

Turning to `N#CCc1nc2cnc3ccc(F)cc3c2n1[C@@H]1CC[C@H](F)C1` (single isomer, unassigned; ent-1) [Example 170, {8-fluoro-1-(cis-3-fluorocyclopentyl)-1H-imidazo[4,5-c]quinolin-2-yl}acetonitrile, ENT-1], the half-inhibitory concentration (IC50) turned out to be 64.4 nM in assay [1] and 106 nM on mutant G2019S LRRK2.

For `Cc1cnn(Cc2nc3cnc4ccc(F)cc4c3n2[C@@H]2CCO[C@H](C)C2)c1` [Example 198, 8-fluoro-2-[(4-methyl-1H-pyrazol-1-yl)methyl]-1-[(2R,4R)-2-methyltetrahydro-2H-pyran-4-yl]-1H-imidazo[4,5-c]quinoline], the 50% inhibitory concentration (IC50) in assay [1] turned out to be 15.2 nM; at mutant G2019S LRRK2, 16.8 nM.

Take `Cc1cc(Cc2nc3cnc4ccc(C#N)cc4c3n2[C@@H]2CC[C@H](F)C2)on1` (single isomer, unassigned; ent-1) [Example 118, 1-(cis-3-fluorocyclopentyl)-2-[(3-methyl-1,2-oxazol-5-yl)methyl]-1H-imidazo[4,5-c]quinoline-8-carbonitrile, ENT-1]: the values for the 50% inhibitory concentration (IC50) (in assay [1]; at mutant G2019S LRRK2) were 4.15 nM and 6.19 nM, respectively.

Take `Cc1cc(Cc2nc3cnc4ccc(C#N)cc4c3n2CC(C)(F)F)no1` [Example 248, 1-(2,2-difluoropropyl)-2-[(5-methyl-1,2-oxazol-3-yl)methyl]-1H-imidazo[4,5-c]quinoline-8-carbonitrile]: the half-inhibitory concentration (IC50) in assay [1] came to 15 nM; at mutant G2019S LRRK2 it was 17.7 nM.
